Reference: ChEMBL document CHEMBL4354805, “Discovery of MK-8719, a Potent O-GlcNAcase Inhibitor as a Potential Treatment for Tauopathies” (J Med Chem, 2019)

Assays:
[1] = target: T1, Beta-hexosaminidase subunit beta (Homo sapiens, UniProt P07686); test: Inhibition of human beta hexosaminidase assessed as inhibitory constant using 4-methylumbelliferyl N-acetyl-beta-D-glucosaminide dihydrate as substrate measured every 60 sec for 45 mins by fluorescence spectrophotometry
T1 sequence (P07686 whole entry): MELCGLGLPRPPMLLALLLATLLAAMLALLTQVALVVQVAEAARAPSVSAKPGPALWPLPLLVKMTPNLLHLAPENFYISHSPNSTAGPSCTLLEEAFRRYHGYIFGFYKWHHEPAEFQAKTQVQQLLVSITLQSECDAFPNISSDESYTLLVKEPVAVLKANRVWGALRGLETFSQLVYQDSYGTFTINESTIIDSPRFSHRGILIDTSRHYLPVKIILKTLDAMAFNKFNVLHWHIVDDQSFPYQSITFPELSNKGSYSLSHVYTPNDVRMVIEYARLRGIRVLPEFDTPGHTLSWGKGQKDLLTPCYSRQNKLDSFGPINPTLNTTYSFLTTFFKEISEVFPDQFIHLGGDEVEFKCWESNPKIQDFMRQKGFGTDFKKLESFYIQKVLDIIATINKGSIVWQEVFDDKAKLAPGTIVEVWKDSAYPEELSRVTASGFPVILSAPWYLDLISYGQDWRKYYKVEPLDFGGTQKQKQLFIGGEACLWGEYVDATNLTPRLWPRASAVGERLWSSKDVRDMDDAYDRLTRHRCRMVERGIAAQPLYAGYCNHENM

[2] = Oral bioavailability in Wistar Han rat at 10 mg/kg; assay type: ADME, organism-based; settings: in vivo
[3] = Half life in Wistar Han rat at 2 mg/kg, iv; assay type: ADME, organism-based; settings: in vivo
[4] = Volume of distribution at steady state in Wistar Han rat at 2 mg/kg, iv or 10 mg/kg, po; assay type: ADME, organism-based; settings: in vivo, read-out: Vdss
[5] = Clearance in Wistar Han rat at 2 mg/kg, iv; assay type: ADME, organism-based; settings: in vivo
[6] = AUCN in Wistar Han rat at 10 mg/kg, po; assay type: ADME, organism-based; settings: in vivo
Protein O-GlcNAcase [7] = target: T2, Protein O-GlcNAcase (Rattus norvegicus, UniProt Q8VIJ5); test: Inhibition of OGA in rat PC12 cells assessed as OGlcNAcylated protein level incubated for 24 hrs by ELISA; assay type: cell-based
T2 sequence (Q8VIJ5 whole entry): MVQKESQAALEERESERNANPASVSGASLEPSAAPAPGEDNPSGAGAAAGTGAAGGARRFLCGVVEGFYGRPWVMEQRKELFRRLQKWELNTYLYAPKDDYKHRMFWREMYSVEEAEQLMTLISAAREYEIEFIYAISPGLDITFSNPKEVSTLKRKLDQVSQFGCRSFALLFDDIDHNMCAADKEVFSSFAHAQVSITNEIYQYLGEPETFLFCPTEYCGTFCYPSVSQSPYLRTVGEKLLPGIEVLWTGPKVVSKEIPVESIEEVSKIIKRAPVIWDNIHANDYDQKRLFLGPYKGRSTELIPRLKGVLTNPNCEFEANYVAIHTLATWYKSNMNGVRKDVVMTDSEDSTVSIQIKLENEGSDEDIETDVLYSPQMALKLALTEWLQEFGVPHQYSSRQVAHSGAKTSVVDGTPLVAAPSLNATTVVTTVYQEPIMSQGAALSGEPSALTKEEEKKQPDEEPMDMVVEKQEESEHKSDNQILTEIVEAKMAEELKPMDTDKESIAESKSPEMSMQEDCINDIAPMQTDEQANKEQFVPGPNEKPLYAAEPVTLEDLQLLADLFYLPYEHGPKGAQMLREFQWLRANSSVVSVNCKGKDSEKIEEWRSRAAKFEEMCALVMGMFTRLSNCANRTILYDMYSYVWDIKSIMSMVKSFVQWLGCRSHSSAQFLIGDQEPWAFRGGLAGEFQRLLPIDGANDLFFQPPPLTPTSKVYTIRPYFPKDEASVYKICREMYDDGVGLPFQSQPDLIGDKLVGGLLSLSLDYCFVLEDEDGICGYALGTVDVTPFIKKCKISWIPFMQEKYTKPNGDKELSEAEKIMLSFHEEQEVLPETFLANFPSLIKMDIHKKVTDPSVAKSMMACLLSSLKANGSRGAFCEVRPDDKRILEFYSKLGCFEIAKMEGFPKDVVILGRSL

Protein O-GlcNAcase [8] = target: T3, Protein O-GlcNAcase (Homo sapiens, UniProt O60502); test: Inhibition of recombinant human OGA
T3 sequence (O60502 whole entry): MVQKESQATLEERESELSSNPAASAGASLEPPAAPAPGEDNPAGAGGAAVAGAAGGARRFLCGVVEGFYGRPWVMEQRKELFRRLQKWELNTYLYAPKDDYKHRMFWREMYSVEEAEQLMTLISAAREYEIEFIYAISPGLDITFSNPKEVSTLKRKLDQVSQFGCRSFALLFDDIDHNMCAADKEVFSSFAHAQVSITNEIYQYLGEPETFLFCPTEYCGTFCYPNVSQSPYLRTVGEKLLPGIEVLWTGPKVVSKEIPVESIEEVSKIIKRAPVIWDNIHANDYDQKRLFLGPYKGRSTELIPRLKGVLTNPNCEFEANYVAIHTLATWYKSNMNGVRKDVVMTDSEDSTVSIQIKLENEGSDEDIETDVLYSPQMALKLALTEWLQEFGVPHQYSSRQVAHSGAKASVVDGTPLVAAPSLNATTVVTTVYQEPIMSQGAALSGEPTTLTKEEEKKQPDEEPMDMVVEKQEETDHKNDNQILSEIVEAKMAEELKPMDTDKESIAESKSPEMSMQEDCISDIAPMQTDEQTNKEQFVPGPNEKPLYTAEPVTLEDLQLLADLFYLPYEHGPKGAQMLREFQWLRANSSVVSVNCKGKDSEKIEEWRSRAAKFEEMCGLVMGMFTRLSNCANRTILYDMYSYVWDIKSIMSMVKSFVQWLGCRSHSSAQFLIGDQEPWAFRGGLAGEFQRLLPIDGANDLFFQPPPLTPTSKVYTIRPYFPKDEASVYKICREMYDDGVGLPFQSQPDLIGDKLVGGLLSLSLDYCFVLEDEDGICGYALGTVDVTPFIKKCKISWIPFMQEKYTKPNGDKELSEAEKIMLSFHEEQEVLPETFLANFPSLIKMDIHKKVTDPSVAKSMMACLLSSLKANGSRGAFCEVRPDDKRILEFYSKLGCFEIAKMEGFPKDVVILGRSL

MDR1 = test: Apparent permeability in pig LLC-PK1 cells transfected with MDR1; assay type: ADME, cell-based, Sus scrofa
[9] = Ratio of drug uptake in rat brain to plasma at 3 mg/kg, po measured after 24 hrs; assay type: ADME, organism-based; settings: read-out: BPR
Rattus norvegicus [10] = test: Elevation of O-protein in rat brain at 3 mg/kg, po measured after 24 hrs relative to control; assay type: functional
[11] = Oral bioavailability in Wistar Han rat at 3 mg/kg; assay type: ADME, organism-based; settings: in vivo
[12] = Drug uptake in rat brain at 3 mg/kg, po measured after 24 hrs; assay type: ADME, organism-based; settings: in vivo
[13] = AUCN in Wistar Han rat at 3 mg/kg, po; assay type: ADME, organism-based; settings: in vivo
[14] = Drug uptake in rat brain at 3 mg/kg, po measured after 8 hrs; assay type: ADME, organism-based; settings: in vivo
[15] = Fraction unbound in Wistar Han rat plasma at 2.5 uM by equilibrium dialysis; assay type: ADME, cell-free
Rattus norvegicus [16] = test: Elevation of O-protein in rat brain at 3 mg/kg, po measured after 8 hrs relative to control; assay type: functional
[17] = Volume of distribution at steady state in Wistar Han rat at 2 mg/kg, iv or 3 mg/kg, po; assay type: ADME, organism-based; settings: in vivo, read-out: Vdss
[18] = Fraction unbound in human plasma at 2.5 uM by equilibrium dialysis; assay type: ADME, cell-free
[19] = Ratio of drug uptake in rat brain to plasma at 3 mg/kg, po measured after 8 hrs; assay type: ADME, organism-based; settings: read-out: BPR
Cytochrome P450 2D6 = Cytochrome P450 2D6 (Homo sapiens, UniProt P10635); test: Inhibition of CYP2D6 (unknown origin); assay type: ADME
Cytochrome P450 3A4 = Cytochrome P450 3A4 (Homo sapiens, UniProt P08684); test: Inhibition of CYP3A4 (unknown origin); assay type: ADME
[20] = target: Voltage-gated inwardly rectifying potassium channel KCNH2 (Homo sapiens, UniProt Q12809); test: Displacement of MK-0499 from human ERG
[21] = target: Sodium channel protein type 5 subunit alpha (Homo sapiens, UniProt Q14524); test: Inhibition of Nav1.5 (unknown origin)
[22] = target: T4, Nuclear receptor subfamily 1 group I member 2 (Homo sapiens, UniProt O75469); test: Activation of PXR (unknown origin) assessed as CYP3A4 induction
T4 sequence (O75469 whole entry): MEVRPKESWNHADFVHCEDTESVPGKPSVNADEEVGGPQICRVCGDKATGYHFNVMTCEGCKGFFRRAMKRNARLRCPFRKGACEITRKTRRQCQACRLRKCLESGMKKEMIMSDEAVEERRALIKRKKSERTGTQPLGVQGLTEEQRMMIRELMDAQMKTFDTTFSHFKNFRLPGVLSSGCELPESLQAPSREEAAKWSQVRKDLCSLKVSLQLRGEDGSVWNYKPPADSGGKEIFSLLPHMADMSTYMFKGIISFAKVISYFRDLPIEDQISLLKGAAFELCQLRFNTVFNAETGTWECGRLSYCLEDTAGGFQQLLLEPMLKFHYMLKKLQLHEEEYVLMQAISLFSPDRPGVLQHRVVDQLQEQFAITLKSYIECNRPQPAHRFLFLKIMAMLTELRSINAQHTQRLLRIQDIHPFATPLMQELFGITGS

[23] = target: Voltage-dependent L-type calcium channel subunit alpha-1C (Homo sapiens, UniProt Q13936); test: Inhibition of Cav1.2 (unknown origin)
Cytochrome P450 2C9 = Cytochrome P450 2C9 (Homo sapiens, UniProt P11712); test: Inhibition of CYP2C9 (unknown origin); assay type: ADME
Chain of Cytochrome P450 2C9 (P11712 whole entry): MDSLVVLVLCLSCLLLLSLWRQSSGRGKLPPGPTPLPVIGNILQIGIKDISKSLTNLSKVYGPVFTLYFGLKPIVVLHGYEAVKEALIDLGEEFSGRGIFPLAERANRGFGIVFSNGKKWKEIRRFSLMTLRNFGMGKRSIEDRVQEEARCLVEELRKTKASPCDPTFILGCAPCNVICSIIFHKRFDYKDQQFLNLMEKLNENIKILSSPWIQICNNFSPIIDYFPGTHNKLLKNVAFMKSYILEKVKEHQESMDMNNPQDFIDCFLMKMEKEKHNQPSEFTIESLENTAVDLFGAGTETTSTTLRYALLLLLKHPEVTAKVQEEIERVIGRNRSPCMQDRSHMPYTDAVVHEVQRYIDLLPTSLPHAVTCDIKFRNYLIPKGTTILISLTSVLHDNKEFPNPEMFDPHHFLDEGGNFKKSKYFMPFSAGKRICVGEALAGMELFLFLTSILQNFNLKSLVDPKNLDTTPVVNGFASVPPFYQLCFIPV

Chain of Voltage-dependent L-type calcium channel subunit alpha-1C (Q13936 whole entry): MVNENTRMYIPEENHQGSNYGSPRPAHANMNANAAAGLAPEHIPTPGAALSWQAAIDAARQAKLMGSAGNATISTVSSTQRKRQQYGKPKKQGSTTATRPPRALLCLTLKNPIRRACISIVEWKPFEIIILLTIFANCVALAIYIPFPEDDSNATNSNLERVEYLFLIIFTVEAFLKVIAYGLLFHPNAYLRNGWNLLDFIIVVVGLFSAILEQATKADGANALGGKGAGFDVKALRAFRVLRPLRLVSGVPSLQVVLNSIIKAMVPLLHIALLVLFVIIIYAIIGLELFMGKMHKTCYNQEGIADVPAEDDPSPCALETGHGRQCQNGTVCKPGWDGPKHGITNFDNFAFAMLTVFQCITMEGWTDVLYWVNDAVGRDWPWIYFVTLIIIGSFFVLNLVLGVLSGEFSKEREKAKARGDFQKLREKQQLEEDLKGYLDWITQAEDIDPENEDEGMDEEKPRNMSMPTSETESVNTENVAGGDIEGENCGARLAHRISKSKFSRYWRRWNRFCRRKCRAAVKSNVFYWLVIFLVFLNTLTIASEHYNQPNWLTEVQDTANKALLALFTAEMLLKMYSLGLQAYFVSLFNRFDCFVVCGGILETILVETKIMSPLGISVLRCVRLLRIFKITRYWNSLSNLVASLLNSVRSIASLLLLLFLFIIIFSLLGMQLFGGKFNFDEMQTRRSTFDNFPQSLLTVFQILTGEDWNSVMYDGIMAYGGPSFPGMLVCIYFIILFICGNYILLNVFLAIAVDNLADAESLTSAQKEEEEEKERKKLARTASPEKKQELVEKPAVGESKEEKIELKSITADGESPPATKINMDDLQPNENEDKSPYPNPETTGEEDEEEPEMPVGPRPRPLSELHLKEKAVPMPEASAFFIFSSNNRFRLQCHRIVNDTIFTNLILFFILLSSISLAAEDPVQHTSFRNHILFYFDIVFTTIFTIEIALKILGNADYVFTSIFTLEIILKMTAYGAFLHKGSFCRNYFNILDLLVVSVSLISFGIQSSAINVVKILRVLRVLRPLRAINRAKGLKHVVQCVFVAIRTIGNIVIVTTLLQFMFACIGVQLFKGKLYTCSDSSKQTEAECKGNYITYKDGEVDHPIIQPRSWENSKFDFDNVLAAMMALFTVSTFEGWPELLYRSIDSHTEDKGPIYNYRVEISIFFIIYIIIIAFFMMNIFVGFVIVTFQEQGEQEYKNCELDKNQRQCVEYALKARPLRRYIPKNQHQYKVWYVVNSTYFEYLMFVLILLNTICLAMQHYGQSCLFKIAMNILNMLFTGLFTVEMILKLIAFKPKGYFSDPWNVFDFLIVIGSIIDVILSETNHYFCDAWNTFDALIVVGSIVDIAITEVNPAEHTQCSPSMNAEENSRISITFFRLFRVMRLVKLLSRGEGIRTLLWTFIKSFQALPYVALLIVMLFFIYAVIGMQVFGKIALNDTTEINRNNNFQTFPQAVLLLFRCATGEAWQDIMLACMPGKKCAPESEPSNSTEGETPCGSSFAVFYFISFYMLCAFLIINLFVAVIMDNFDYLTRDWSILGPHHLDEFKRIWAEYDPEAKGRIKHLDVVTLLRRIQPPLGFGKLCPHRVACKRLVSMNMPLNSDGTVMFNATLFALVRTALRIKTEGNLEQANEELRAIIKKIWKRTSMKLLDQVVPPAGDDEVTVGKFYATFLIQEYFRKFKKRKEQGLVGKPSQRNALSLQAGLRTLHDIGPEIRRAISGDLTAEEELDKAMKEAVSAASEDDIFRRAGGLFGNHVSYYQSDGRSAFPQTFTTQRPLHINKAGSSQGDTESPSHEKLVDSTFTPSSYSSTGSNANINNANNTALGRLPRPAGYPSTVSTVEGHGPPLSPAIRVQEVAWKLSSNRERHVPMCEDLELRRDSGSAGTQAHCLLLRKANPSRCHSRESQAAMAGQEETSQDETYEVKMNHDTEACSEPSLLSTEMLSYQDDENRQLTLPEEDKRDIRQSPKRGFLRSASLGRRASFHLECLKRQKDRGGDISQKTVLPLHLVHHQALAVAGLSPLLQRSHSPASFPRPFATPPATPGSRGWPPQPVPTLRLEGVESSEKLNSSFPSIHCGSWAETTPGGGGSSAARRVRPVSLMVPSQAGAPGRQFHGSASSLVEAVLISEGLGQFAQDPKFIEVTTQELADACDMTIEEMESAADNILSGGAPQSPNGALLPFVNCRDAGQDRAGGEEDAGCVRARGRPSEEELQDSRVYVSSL
Chain of Voltage-gated inwardly rectifying potassium channel KCNH2 (Q12809 whole entry): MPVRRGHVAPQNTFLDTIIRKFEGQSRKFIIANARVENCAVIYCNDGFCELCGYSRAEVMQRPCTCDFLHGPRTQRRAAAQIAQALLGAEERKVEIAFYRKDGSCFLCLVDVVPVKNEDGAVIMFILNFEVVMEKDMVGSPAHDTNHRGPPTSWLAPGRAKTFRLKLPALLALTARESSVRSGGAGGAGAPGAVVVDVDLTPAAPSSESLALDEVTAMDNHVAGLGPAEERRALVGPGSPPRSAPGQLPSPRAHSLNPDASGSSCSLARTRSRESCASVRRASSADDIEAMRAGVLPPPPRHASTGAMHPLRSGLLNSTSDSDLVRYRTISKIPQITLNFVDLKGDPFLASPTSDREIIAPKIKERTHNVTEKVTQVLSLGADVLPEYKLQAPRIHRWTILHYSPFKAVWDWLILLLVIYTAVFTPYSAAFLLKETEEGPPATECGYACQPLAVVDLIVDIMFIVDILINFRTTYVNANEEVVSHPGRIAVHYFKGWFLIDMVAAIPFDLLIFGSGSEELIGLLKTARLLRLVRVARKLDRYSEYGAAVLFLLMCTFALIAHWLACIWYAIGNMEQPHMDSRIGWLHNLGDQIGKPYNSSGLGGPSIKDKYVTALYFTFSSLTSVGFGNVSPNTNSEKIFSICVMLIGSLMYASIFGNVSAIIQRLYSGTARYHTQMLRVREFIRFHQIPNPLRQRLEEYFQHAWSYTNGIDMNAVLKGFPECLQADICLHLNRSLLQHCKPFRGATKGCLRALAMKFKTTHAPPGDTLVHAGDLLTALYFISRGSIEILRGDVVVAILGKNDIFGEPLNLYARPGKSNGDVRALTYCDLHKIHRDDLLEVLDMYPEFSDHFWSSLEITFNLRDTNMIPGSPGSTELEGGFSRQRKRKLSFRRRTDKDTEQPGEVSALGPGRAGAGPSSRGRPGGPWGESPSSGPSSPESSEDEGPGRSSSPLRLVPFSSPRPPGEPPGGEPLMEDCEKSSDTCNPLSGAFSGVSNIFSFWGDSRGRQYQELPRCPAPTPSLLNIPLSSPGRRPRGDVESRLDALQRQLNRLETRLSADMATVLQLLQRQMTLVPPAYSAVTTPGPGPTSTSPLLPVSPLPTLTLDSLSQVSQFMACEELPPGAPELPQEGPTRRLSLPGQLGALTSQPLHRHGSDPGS
Chain of Cytochrome P450 3A4 (P08684 whole entry): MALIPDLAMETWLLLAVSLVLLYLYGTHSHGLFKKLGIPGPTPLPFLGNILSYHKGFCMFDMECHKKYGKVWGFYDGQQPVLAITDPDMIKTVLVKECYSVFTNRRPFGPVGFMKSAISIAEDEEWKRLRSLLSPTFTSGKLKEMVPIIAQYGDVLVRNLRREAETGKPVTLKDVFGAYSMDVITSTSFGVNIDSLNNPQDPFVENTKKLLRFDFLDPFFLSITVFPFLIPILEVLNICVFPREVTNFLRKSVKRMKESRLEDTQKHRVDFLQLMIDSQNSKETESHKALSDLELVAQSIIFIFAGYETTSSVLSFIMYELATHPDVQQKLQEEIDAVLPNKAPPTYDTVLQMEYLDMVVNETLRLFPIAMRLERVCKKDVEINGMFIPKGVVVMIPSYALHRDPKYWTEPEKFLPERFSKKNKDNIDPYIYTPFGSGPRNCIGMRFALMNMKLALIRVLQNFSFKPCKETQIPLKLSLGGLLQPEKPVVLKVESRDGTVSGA
Chain of Cytochrome P450 2D6 (P10635 whole entry): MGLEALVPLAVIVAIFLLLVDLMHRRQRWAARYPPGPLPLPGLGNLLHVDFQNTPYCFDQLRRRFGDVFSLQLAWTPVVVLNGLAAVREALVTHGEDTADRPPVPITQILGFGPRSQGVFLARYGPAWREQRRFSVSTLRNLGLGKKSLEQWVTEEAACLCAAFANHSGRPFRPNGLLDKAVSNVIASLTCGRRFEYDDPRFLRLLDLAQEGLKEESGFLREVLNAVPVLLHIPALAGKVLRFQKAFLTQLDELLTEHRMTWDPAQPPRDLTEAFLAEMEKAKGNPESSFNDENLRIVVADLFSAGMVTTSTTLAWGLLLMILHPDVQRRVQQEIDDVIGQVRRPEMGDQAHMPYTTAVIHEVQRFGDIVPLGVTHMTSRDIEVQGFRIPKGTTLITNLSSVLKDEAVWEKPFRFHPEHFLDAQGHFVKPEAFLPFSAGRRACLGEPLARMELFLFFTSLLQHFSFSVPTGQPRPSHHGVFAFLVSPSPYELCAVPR

SMILES | Ki [1] | bioavailability [2] | half-life [3] | Vd [4] | clearance [5] | AUC/dose [6] | EC50 (Protein O-GlcNAcase [7]) | Ki (Protein O-GlcNAcase [8]) | Papp (MDR1) | IC50 (Cytochrome P450 2D6) | IC50 (Cytochrome P450 3A4) | IC50 [20] | IC50 [21] | EC50 [22] | IC50 [23] | IC50 (Cytochrome P450 2C9) | further results
CNC1=N[C@@H]2C[C@H](O)[C@@H](CO)O[C@@H]2S1 | > 10000 nM | 129% | 1.06 h | 2.8 L/kg | 39 mL/min/kg | 2.53 µM·kg·h/mg | 33.1 nM | 9.4 nM |  |  |  |  |  |  |  |  | 
CCCNC1=N[C@@H]2[C@@H](O)[C@H](O)[C@@H](CF)O[C@@H]2S1 | > 10000 nM | 75.3% |  |  |  |  | 119 nM | 14 nM | 17 ×10⁻⁶ cm/s |  |  |  |  |  |  |  | 
CN(C)C1=N[C@@H]2[C@@H](O)[C@H](O)[C@@H](CF)O[C@@H]2S1 | 1600 nM |  |  |  | 43.7 mL/min/kg |  | 177 nM | 9 nM | 6.8 ×10⁻⁶ cm/s |  |  |  |  |  |  |  | Kp at 24 h [9]: 1.53; fold change (FC) (Rattus norvegicus [10]): 1.77; bioavailability [11]: 75.3%; Drug uptake [12]: 0.038 nmol/g; AUC/dose [13]: 0.954 µM·kg·h/mg; Drug uptake [14]: 0.222 nmol/g; fraction unbound at 2.5 µM [15]: > 0.99; fold change (FC) (Rattus norvegicus [16]): 2.33; Vd [17]: 10.5 L/kg; fraction unbound at 2.5 µM [18]: > 0.99; Kp at 8 h [19]: 0.9
CCNC1=N[C@@H]2[C@@H](OC)[C@H](O)[C@@H](CO)O[C@@H]2S1 | > 10000 nM |  |  |  |  |  |  | 270 nM |  | > 50000 nM | > 50000 nM | > 30000 nM | > 30000 nM | > 30000 nM | > 30000 nM | > 50000 nM | 
OC[C@H]1O[C@@H]2SC(N3CCC3)=N[C@@H]2[C@@H](O)[C@@H]1O | > 10000 nM | 96% | 1.63 h | 2.88 L/kg | 53.6 mL/min/kg | 1.15 µM·kg·h/mg | 28 nM | 3.3 nM |  |  |  |  |  |  |  |  | 
CCN(C)C1=N[C@@H]2[C@@H](O)[C@H](O)[C@@H](CO)O[C@@H]2S1 | 3600 nM | 62% | 1.89 h | 5.39 L/kg | 66.3 mL/min/kg | 0.598 µM·kg·h/mg | 36.7 nM | 5.5 nM | 1.1 ×10⁻⁶ cm/s | > 50000 nM | > 50000 nM | > 30000 nM | > 30000 nM | > 30000 nM | > 30000 nM | > 50000 nM | 
